Results reported in patent publication US10435394B2, “Plant growth-promotion agent and method for promoting plant growth” (RIKEN, priority 2014, dated 2019).

Key:
Assay type in all cases: in vivo
[1] = test system: Arabidopsis seeds (Columbia); assay: Plant growth promoting activity test using Arabidopsis, Experimental Method (2); details: 15, 30, 60 μM; for growth of aerial leaves: Day 26 of sprouting, FIGS. 15 and 16; for growth of aerial leaves (average leaf area per individual): Day 27 of sprouting, FIGS. 10 and 11; for plant growth promoting effects (state of sprouting): Day 22, FIGS. 6 and 7
Procedure: (§1) A ½ MS medium (agarose: 0.9%; sucrose: 1.5%; Murashige & Skoog plant culture medium×½ concentration) was prepared and autoclaved. Then, the test compounds were separately added thereto at 0 (DMSO alone), 15, 30, and 60 μM and solidified in a plastic petri dish. Arabidopsis seeds (Columbia) were sterilized with ethanol and sown to sprout, followed by observation of conditions of leaves and roots after sprouting. DMSO alone was added as a solvent for a control.

[2] = test system: Arabidopsis seeds (Columbia); assay: Plant growth promoting activity test using Arabidopsis, Experimental Method (1); details: for plant growth promoting effects (state of sprouting): 60 μM in 1/2 MS medium, Day 23, FIG. 1
Procedure: as §1, with “at” for “at 0 (DMSO alone), 15, 30, and”, “leaves, roots,” for “leaves”, “stems” for “roots”

Tomato seeds (Micro-Tom) = assay: Plant growth promoting effects on tomato; details: 5, 15, 30 μM in 1/2 MS medium; Day 73 of sprouting; FIG. 17
Procedure: A ½ MS medium (agarose: 0.9%; sucrose: 1.5%; Murashige & Skoog plant culture medium×½ concentration) was prepared and autoclaved. Then, the compound 1 (PPZ) was added thereto at 0 (DMSO alone), 5, 15, and 30 μM and solidified in a plastic pot. Tomato seeds (Micro-Tom) were sterilized with hypochlorous acid and sown to sprout, followed by observation of conditions of leaves and stems after sprouting. DMSO alone was added as a solvent for a control.

rice (Nipponbare) = assay: Plant growth promoting effects upon rice; details: 15 or 30 μM in water absorbed from the bottom of the pot from Day 7; Day 21 of sprouting; FIG. 18
Procedure: A plant pot containing rice culture soil was prepared and rice (Nipponbare) was sown therein. Rice was raised with distilled water until Day 7 of sprouting. Rice was allowed to absorb distilled water containing the compound 1 (PPZ) at a concentration of 0 (DMSO alone), 15, or 30 μM from the bottom of the pot from Day 7 of sprouting. Water used was discarded every 7 days and replaced by fresh water. Rice was photographed and the plant length of rice was measured on Day 21 of sprouting or Day of 14 from the start of treatment.

[3] = test system: Arabidopsis seeds (Columbia); assay: Plant growth promoting activity test using Arabidopsis, Experimental Method (1); details: 5, 15, 30, 45, 60 μM

O=S1(=O)CCN(Cc2ccc3c(c2)OCO3)CC1 [Compound 21]
growth of aerial leaves [1]: activity of promoting the growth of aerial leaves at the late growth stage

c1ncn(Cc2ccc3c(c2)OCO3)n1 [Compound 6]
plant growth promoting effects (state of sprouting) [2]: decreased plant growth promoting activity and/or growth inhibition

COCCN(C)Cc1ccc2c(c1)OCO2 [Compound 22]
growth of aerial leaves [1]: activity of promoting the growth of aerial leaves at the late growth stage

c1cc2c(cc1CN1CCN(Cc3ccc4c(c3)OCO4)CC1)OCO2 [Compound 2, 1,4-dipiperonylpiperazine]
plant growth promoting effects (state of sprouting) [2]: decreased plant growth promoting activity and/or growth inhibition

c1cc2c(cc1CN1CCNCC1)OCO2 [Compound 1, 1-piperonylpiperazine]
growth of aerial leaves [1]: activity of promoting the growth of aerial leaves at the late growth stage
growth of aerial leaves (average leaf area per individual) [1]: activity of promoting growth of aerial leaves at the late growth stage
growth of aerial leaves and stems of tomato (Tomato seeds (Micro-Tom)): activity of promoting the growth of aerial leaves and stems of tomato
growth of aerial leaves and stems of rice (plant length) (rice (Nipponbare)): activity of promoting the growth of aerial leaves and stems of rice
development/growth of lateral roots ([3]; Day 13 of sprouting, constant light irradiation, FIG. 2): activity of promoting development/growth of lateral roots in the early growth stage
growth of aerial leaves and petioles ([3]; Day 21 of sprouting, FIG. 3): activity of promoting growth of aerial leaves and petioles in the late growth stage
branching ([3]; Day 35 of sprouting, FIG. 4): activity of promoting branching
salt tolerance ([3]; sodium chloride 125 mM, Day 21 of sprouting, FIG. 5): action of enhancing salt tolerance

c1cn(Cc2ccc3c(c2)OCO3)nn1 [Compound 7]
plant growth promoting effects (state of sprouting) [2]: decreased plant growth promoting activity and/or growth inhibition

COc1cc(CN2CCOCC2)cc(OC)c1OC [Compound 13]
plant growth promoting effects (state of sprouting) [1]: weak plant growth promoting effects

c1cc2c(cc1CN1CCSCC1)OCO2 [Compound 12]
elongation of stems and roots ([2]; not shown in figures): excellent plant growth promoting effects for elongation of stems and roots

c1cc2c(cc1CN1CCOCC1)OCO2 [Compound 4]
growth of aerial leaves [1]: activity of promoting the growth of aerial leaves at the late growth stage

COc1ccc(CN2CCOCC2)cc1OC [Compound 10]
elongation of the main root ([2]; not shown in figures): excellent plant growth promoting effects for elongation of the main root

CN1CCN(Cc2ccc3c(c2)OCO3)CC1 [Compound 11]
elongation of stems and roots ([2]; not shown in figures): excellent plant growth promoting effects for elongation of stems and roots

c1cc2c(cc1CCN1CCOCC1)OCO2 [Compound 16]
growth of aerial leaves [1]: activity of promoting the growth of aerial leaves at the late growth stage
growth of aerial leaves (average leaf area per individual) [1]: activity of promoting growth of aerial leaves at the late growth stage

COc1ccc(N2CCOCC2)cc1OC [Compound 15]
plant growth promoting effects (state of sprouting) [1]: weak plant growth promoting effects
